Read-outs that look alike come from different tables or passages of the source.
Tests used:
[1] = biological target: CMY-37 (Citrobacter freundii); test: β-Lactamase inhibitory activity, nitrocefin hydrolysis; assay type: biochemical
Procedure: Enzyme activity was monitored by spectrophotometric measurement of nitrocefin (NCF-TOKU-E, N005) hydrolysis at 485 nm, at room temperature and in assay buffer A: 100 mM Phosphate pH7, 2% glycerol and 0.1 mg/mL Bovine serum albumin (Sigma, B4287). […] To a transparent polystyrene plate (Corning, 3628) were added in each well 5 μL DMSO or inhibitor dilutions in DMSO and 80 μL enzyme in buffer A. Plates were immediately read at 485 nm in a microplate spectrophotometer (BioTek, PowerWave HT) to enable background subtraction. After 30 min of pre-incubation at room temperature, 15 μL of NCF (200 μM final) were finally added in each well. Final enzyme concentrations were 0.1 nM (TEM-1), 0.075 nM (SHV-1), 0.4 nM (CTX-M-15), 1 nM (KPC-2), 0.2 nM (P99 AmpC), 0.2 nM (CMY-37), 0.4 nM (AmpC P. aeruginosa), 0.2 nM (OXA-1), 1.2 nM (OXA-11), 0.4 nM (OXA-15) and 0.3 nM (OXA-48). After 20 min incubation at room temperature, plates were once again read at 485 nm. Enzyme activity was obtained by subtracting the final signal by the background, and was converted to enzyme inhibition using non inhibited wells. IC50 curves were fitted to a classical Langmuir equilibrium model with Hill slope using XLFIT (IDBS).

C. freundii = test: MIC of compounds alone, broth microdilution; assay type: cell-based; conditions: Citrobacter freundii, alone, read-out: MIC
Procedure: (§1) Method 2: MIC of Compounds and Synergy with Ceftazidime Against Bacterial Isolates (Table 2 and 3)
(§2) Compounds of the present invention were assessed against genotyped bacterial strains alone or in combination with the β-lactam ceftazidime. In the assays, MICs of said compounds, or of ceftazidime at fixed concentrations of said compounds were determined by the broth microdilution method according to the Clinical Laboratory Standards Institute (CLSI—M7-A7). Briefly, compounds alone according to the invention were prepared in DMSO and spotted (2 μL each) on sterile polystyrene plates (Corning, 3788). Compounds and ceftazidime dilutions were prepared in DMSO and spotted (1 μL each) on sterile polystyrene plates (Corning, 3788). Log phase bacterial suspensions were adjusted to a final density of 5×10^5 cfu/mL in cation-adjusted Mueller-Hinton broth (Beckton-Dickinson) and added to each well (98 μL). Microplates were incubated for 16-20 h at 35° C. in ambient air. The MIC of the compounds was defined as the lowest concentration of said compounds that prevented bacterial growth as read by visual inspection. The MIC of ceftazidime at each compound concentration was defined as the lowest concentration of ceftazidime that prevented bacterial growth as read by visual inspection.

P. aeruginosa = test: MIC of compounds alone, broth microdilution; assay type: cell-based; conditions: Pseudomonas aeruginosa, alone, read-out: MIC
Procedure: as §1, §2

K. pneumoniae = test: MIC of compounds alone, broth microdilution; assay type: cell-based; conditions: Klebsiella pneumoniae, read-out: MIC
Procedure: as §1, §2

P. mirabilis = test: MIC of compounds alone, broth microdilution; assay type: cell-based; conditions: Proteus mirabilis, PMI UFR82, beta-lactamases CMY-2
Procedure: as §1, §2

S. marcescens = test: MIC of compounds alone, broth microdilution; assay type: cell-based; conditions: Serratia marcescens, SMA UFR30, beta-lactamases OXA-405
Procedure: as §1, §2

M. morganii = test: MIC of compounds alone, broth microdilution; assay type: cell-based; conditions: Morganella morganii, MMO 200321, beta-lactamases TEM-1, CTX-M-15 OXA-1
Procedure: as §1, §2

E. aerogenes = test: MIC of compounds alone, broth microdilution; assay type: cell-based; conditions: Klebsiella aerogenes; alone; EAE 200261; beta-lactamases TEM-x AmpC; read-out: MIC
Procedure: as §1, §2

C. murliniae = test: MIC of compounds alone, broth microdilution; assay type: cell-based; conditions: alone; CMU 210102; beta-lactamases VIM-4; read-out: MIC
Procedure: as §1, §2

E. coli = test: MIC of compounds alone, broth microdilution; assay type: cell-based; conditions: Escherichia coli
Procedure: as §1, §2

K. oxytoca = test: MIC of compounds alone, broth microdilution; assay type: cell-based; conditions: Klebsiella oxytoca; alone; KOX UFR21; beta-lactamases TEM-1, CTX-M-15 OXA-48; read-out: MIC
Procedure: as §1, §2

E. cloacae = test: MIC of compounds alone, broth microdilution; assay type: cell-based; conditions: Enterobacter cloacae
Procedure: as §1, §2

Sequence of CMY-37 (Citrobacter freundii) (A0A9R8 entry or part of it): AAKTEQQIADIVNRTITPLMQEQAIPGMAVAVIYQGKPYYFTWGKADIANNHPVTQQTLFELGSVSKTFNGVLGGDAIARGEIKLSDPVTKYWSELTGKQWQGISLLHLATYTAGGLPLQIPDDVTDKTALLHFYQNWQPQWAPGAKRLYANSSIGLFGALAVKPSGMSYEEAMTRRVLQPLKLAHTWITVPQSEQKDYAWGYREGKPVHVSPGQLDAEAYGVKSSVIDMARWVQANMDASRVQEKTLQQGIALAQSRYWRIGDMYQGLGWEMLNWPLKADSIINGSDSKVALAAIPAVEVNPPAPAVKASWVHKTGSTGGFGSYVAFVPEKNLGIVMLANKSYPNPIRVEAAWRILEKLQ

O=C(O)C(F)(F)F.O=C1N2C[C@H](c3scnc3[C@H]2c2ncc[nH]2)N1OS(=O)(=O)[O-].[Na+] (relative stereo) [Example 1, Sodium and 2,2,2-trifluoroacetate [trans-7-(1H-imidazol-3-ium-2-yl)-9-oxo-3-thia-5,8,10-triaza-tricyclo[6.2.1.0^2,6]undeca-2(6),4-dien-10-yl]sulfate]
32 µg/mL: MIC (K. pneumoniae; alone, KPN UFR81, beta-lactamases TEM-1, SHV-1 DHA-1 OXA-48) | MIC (P. mirabilis) | MIC (M. morganii)
0.5 µg/mL: MIC (E. coli; ECO 190314, beta-lactamases CTX-M-1, read-out: MIC) | MIC (E. coli; ECO 200259, beta-lactamases CTX-M-14, read-out: MIC) | MIC (E. coli; ECO 200344, beta-lactamases CTX-M-1, read-out: MIC) | MIC (E. coli; ECO UFR45, beta-lactamases TEM-1 CMY-4 OXA-1 OXA-48 VIM-1, read-out: MIC) | MIC (E. coli; ECO UFR62, beta-lactamases TEM-1, CTX-M-9 KPC-2, read-out: MIC) | MIC (E. cloacae; ECL 190408, beta-lactamases TEM-1, CTX-M-15 OXA-1, read-out: MIC) | MIC (E. cloacae; ECL UFR51, beta-lactamases SHV-12 IMP-8, read-out: MIC)
> 32 µg/mL: MIC (P. aeruginosa; PAE CIP107051, beta-lactamases TEM-24) | MIC (P. aeruginosa; PAE MUS, beta-lactamases OXA-20 OXA-18) | MIC (K. pneumoniae; alone, KPN 260252, beta-lactamases TEM-1, SHV-11 KPC-3)
8 µg/mL: MIC (C. freundii; CFR UFR11, beta-lactamases TEM-1 OXA-1 OXA-48) | MIC (K. pneumoniae; alone, KPN 190270, beta-lactamases TEM-1, SHV-76, CTX-M-15 OXA-1) | MIC (K. pneumoniae; alone, KPN 270077, beta-lactamases TEM-1, SHV-1, CTX-M-15) | MIC (K. pneumoniae; alone, KPN 6122012, beta-lactamases SHV-1 NDM-1) | MIC (K. pneumoniae; alone, KPN UFR24, beta-lactamases TEM-1, SHV-2, SHV-11 OXA-1 OXA-48 OXA-47) | MIC (K. pneumoniae; alone, KPN UFR66, beta-lactamases TEM-1, SHV-11, CTX-M-15 KPC-2) | MIC (K. pneumoniae; alone, KPN UFR68, beta-lactamases TEM-1, SHV-11, CTX-M-15 KPC-3) | MIC (E. aerogenes) | MIC (E. cloacae; ECL 2185D, beta-lactamases OXA-163, read-out: MIC) | MIC (E. cloacae; ECL 200138, beta-lactamases AmpC, read-out: MIC) | MIC (E. cloacae; ECL 260033, beta-lactamases AmpC, read-out: MIC) | MIC (E. cloacae; ECL 260253, beta-lactamases TEM-1 KPC-3, read-out: MIC) | MIC (E. cloacae; ECL HAN, beta-lactamases OXA-35, read-out: MIC) | MIC (E. cloacae; ECL UFR14, beta-lactamases TEM-1, SHV-12, CTX-M-15 DHA-1 OXA-1 OXA-48, read-out: MIC) | MIC (E. cloacae; ECL UFR60, beta-lactamases TEM-1, CTX-M-15 KPC-2, read-out: MIC) | MIC (E. cloacae; ECL UFR84, beta-lactamases TEM-1 AmpC OXA-1, read-out: MIC)
16 µg/mL: MIC (K. pneumoniae; alone, KPN 6299, beta-lactamases TEM-1, SHV-11 OXA-163) | MIC (K. pneumoniae; alone, KPN UFR43, beta-lactamases SHV-11, CTX-M-15 CMY-2 OXA-1 NDM-1) | MIC (K. pneumoniae; alone, KPN UFR65, beta-lactamases TEM-1, SHV-11 KPC-2) | MIC (S. marcescens) | MIC (E. coli; ECO UFR41, beta-lactamases TEM-1, CTX-M-15 CMY-2 OXA-1 NDM-4, read-out: MIC)
4 µg/mL: MIC (K. pneumoniae; BAA1898, alone, KPN BAA-1898, beta-lactamases TEM-1, SHV-11, SHV-12 KPC-2) | MIC (K. pneumoniae; alone, KPN 131119, beta-lactamases TEM-1, SHV-11, CTX-M-15 OXA-1 OXA-48) | MIC (K. pneumoniae; alone, KPN 160143, beta-lactamases TEM-1, SHV-1, CTX-M-15 KPC-2 OXA-1) | MIC (K. pneumoniae; alone, KPN 190128, beta-lactamases TEM-1, SHV-32, CTX-M-15 OXA-1) | MIC (K. pneumoniae; alone, KPN 190425, beta-lactamases TEM-1, SHV-1, CTX-M-15 OXA-1) | MIC (K. pneumoniae; alone, KPN 260251, beta-lactamases TEM-1, SHV-11, SHV-12, CTX-M-15 KPC-2) | MIC (K. pneumoniae; alone, KPN 700603, beta-lactamases SHV-18 OXA-2) | MIC (K. pneumoniae; alone, KPN ARA, beta-lactamases TEM-1, SHV-11, CTX-M-15 OXA-1 OXA-48) | MIC (K. pneumoniae; alone, KPN UFR22_O, beta-lactamases TEM-1, SHV-1 OXA-48) | MIC (K. pneumoniae; alone, KPN UFR27, beta-lactamases TEM-1, SHV-28, CTX-M-15 OXA-204) | MIC (K. pneumoniae; alone, KPN UFR42, beta-lactamases SHV-2, CTX-M-15 OXA-1 OXA-181 NDM-1) | MIC (K. pneumoniae; alone, KPN UFR53, beta-lactamases TEM-1 IMP-1) | MIC (K. pneumoniae; alone, KPN UFR77, beta-lactamases CMY-2) | MIC (K. pneumoniae; alone, KPN UFR79, beta-lactamases DHA-1 OXA-1) | MIC (C. murliniae) | MIC (E. coli; ECO 260096, beta-lactamases CTX-M-132, read-out: MIC) | MIC (E. coli; ECO UFR17, beta-lactamases TEM-1, CTX-M-15 CMY-2 OXA-1 OXA-181, read-out: MIC) | MIC (K. oxytoca) | MIC (E. cloacae; ECL 190310, beta-lactamases AmpC, read-out: MIC) | MIC (E. cloacae; ECL 260323, beta-lactamases AmpC, read-out: MIC) | MIC (E. cloacae; ECL P99, beta-lactamases AmpC, read-out: MIC)
0.25 µg/mL: MIC (E. coli; ECO 190549, beta-lactamases CTX-M-1, read-out: MIC) | MIC (E. coli; ECO 200159, beta-lactamases TEM-1, CTX-M-14, read-out: MIC)
2 µg/mL: MIC (C. freundii; CFR UFR37, beta-lactamases TEM-1, CTX-M-15 NDM-1) | MIC (K. pneumoniae; alone, KPN 110376, beta-lactamases TEM-1, SHV-1, CTX-M-15 OXA-1 OXA-48) | MIC (K. pneumoniae; alone, KPN 190551, beta-lactamases TEM-1, SHV-1, CTX-M-15 OXA-1) | MIC (K. pneumoniae; alone, KPN 200047, beta-lactamases TEM-1, SHV-32, CTX-M-15 OXA-1) | MIC (K. pneumoniae; alone, KPN 200327, beta-lactamases TEM-1, SHV-1, CTX-M-15 OXA-1) | MIC (K. pneumoniae; alone, KPN 260376, beta-lactamases SHV-1, SHV-49 OXA-1) | MIC (K. pneumoniae; alone, KPN LIB, beta-lactamases SHV-11 OXA-48) | MIC (K. pneumoniae; alone, KPN UFR25, beta-lactamases TEM-1, SHV-11, CTX-M-15 OXA-162) | MIC (K. pneumoniae; alone, KPN UFR28, beta-lactamases TEM-1, SHV-1, CTX-M-15 OXA-1 OXA-232) | MIC (E. coli; ECO 260508, beta-lactamases TEM-1, CTX-M-15 OXA-1, read-out: MIC) | MIC (E. coli; ECO UFR16, beta-lactamases TEM-1, CTX-M-15 OXA-1 OXA-48, read-out: MIC) | MIC (E. coli; ECO UFR39, beta-lactamases CTX-M-15 NDM-1, read-out: MIC) | MIC (E. coli; ECO UFR74, beta-lactamases SHV-1 DHA-1, read-out: MIC) | MIC (E. cloacae; ECL NEM146383, beta-lactamases AmpC, read-out: MIC) | MIC (E. cloacae; ECL UFR12, beta-lactamases CTX-M-9 OXA-48, read-out: MIC) | MIC (E. cloacae; ECL UFR13, beta-lactamases TEM-1, SHV-12, CTX-M-9 OXA-48, read-out: MIC) | MIC (E. cloacae; ECL UFR85, beta-lactamases TEM-1, CTX-M-15 AmpC, read-out: MIC)
1 µg/mL: MIC (C. freundii; CFR UFR10, beta-lactamases OXA-48) | MIC (K. pneumoniae; alone, KPN UFR80, beta-lactamases SHV-11 DHA-1 OXA-1) | MIC (E. coli; ECO 180070, beta-lactamases TEM-1, CTX-M-15, read-out: MIC) | MIC (E. coli; ECO 190317, beta-lactamases TEM-1, SHV-12, CTX-M-15 OXA-1, read-out: MIC) | MIC (E. coli; ECO 190457, beta-lactamases CTX-M-15 OXA-1, read-out: MIC) | MIC (E. coli; ECO 260304, beta-lactamases CTX-M-15, read-out: MIC) | MIC (E. coli; ECO UFR18, beta-lactamases CTX-M-15 OXA-204, read-out: MIC) | MIC (E. coli; ECO UFR19, beta-lactamases CTX-M-15 CMY-2 OXA-1 OXA-204, read-out: MIC) | MIC (E. coli; ECO UFR32, beta-lactamases TEM-1, VEB-1 OXA-10, read-out: MIC) | MIC (E. coli; ECO UFR52, beta-lactamases TEM-1, SHV-12 IMP-8, read-out: MIC) | MIC (E. coli; ECO UFR61O, beta-lactamases TEM-1 KPC-2, read-out: MIC) | MIC (E. cloacae; ECL 200322, beta-lactamases TEM-1, CTX-M-15 OXA-1, read-out: MIC) | MIC (E. cloacae; ECL 260508, beta-lactamases TEM-1, CTX-M-15, read-out: MIC) | MIC (E. cloacae; ECL UFR38, beta-lactamases CTX-M-15 NDM-1, read-out: MIC) | MIC (E. cloacae; ECL UFR70, beta-lactamases TEM-1, CTX-M-15 CMY-2 OXA-1, read-out: MIC)
0.63 nM: IC50 [1]

From patent US10842779B2, “Heterocyclic compounds and their use in preventing or treating bacterial infections” (priority 2015, dated 2020)
